Drawing on PubChem BioAssay (NCI), this text covers GI50 and TGI for 2 molecules.

What all share (assay): inhibition of tumour cell growth, NCI panel, 48 h
Assay [1] has as its system SF-539 CNS.
In assay [2] the test system is HT29 colon.
For assay [3], the system named is K-562 leukemia.
The subject of assay [4] is NCI-H460 lung.
Assay [5] relates to RPMI-8226 leukemia.
The test system of assay [6] is SK-MEL-5 melanoma.
Assay [7] deals with RXF 393 renal.
In assay [8] the test system is UACC-257 melanoma.
In assay [9] the test system is A549 NSCLC.
Assay [10] relates to SNB-19 CNS.

SMILES strings stand for the structures.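 Test compounds were applied to cells in 96-well plates for 48 hours at 5 doses. Here, GI50 denotes the concentration required for 50% inhibition of growth. TGI: concentration producing complete growth inhibition.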 Where only a bound is given, the exact number is not on record here.

Regarding `O=Nc1c(-c2cccc([N+](=O)[O-])c2)nc2ncccn12`, the GI50 was 15.8 µM in assay [1]; 9.84 µM in assay [2]; 1.28 µM in [3]; 17.8 µM in [4]; 1.47 µM in [5]; 15.2 µM in assay [6]. Also, the results for the GI50 in assay [8], in [9] and in [10] were 12.3 µM, 21.8 µM and 18 µM, respectively. Also, the TGI in assay [1] was 31 µM; in assay [2], 44.1 µM; in assay [3] it was 4.15 µM; in assay [4] it was 54.8 µM; in [5], 6.56 µM; in assay [6], 32.2 µM. Also, the TGI in assay [7] was 3.01 µM; in [8], 26.4 µM; in assay [9] it was 56.9 µM; in assay [10], 39.6 µM.

As to `NCCOc1ccccn1`, the TGI in assay [1], in [2], in [3], in [4], in assay [5] and in assay [6] was > 100 µM in each case. Moreover, the TGI in assay [7], in assay [8], in [9] and in assay [10] was > 100 µM throughout.
